Measured values: patent publication US10259810B2, “N-sulfonylated pyrazolo[3,4-b]pyridin-6-carboxamides and method of use” (AbbVie S.à.r.l., priority 2015, dated 2019)

How the values were obtained:
[1] = target: T1, ΔF508-CFTR (Homo sapiens, UniProt P13569, DEL508-508); test: CFTR cell surface levels using HRP-tagged ΔF508-CFTR expressing CFBE cells, intrinsic corrector capacity; format: cell-based; design: % Activation: concentration or dose not given beside the values; conditions: HRP-tagged ΔF508-CFTR expressing CFBE41o- cells, compound alone (intrinsic corrector capacity), 20 hours at 33° C.; for EC50: read-out: EC50
T1 construct: host or cells: CFBE41o-, doxycycline-inducible
T1 sequence (P13569 with tags, fused parts or gaps DEL508-508): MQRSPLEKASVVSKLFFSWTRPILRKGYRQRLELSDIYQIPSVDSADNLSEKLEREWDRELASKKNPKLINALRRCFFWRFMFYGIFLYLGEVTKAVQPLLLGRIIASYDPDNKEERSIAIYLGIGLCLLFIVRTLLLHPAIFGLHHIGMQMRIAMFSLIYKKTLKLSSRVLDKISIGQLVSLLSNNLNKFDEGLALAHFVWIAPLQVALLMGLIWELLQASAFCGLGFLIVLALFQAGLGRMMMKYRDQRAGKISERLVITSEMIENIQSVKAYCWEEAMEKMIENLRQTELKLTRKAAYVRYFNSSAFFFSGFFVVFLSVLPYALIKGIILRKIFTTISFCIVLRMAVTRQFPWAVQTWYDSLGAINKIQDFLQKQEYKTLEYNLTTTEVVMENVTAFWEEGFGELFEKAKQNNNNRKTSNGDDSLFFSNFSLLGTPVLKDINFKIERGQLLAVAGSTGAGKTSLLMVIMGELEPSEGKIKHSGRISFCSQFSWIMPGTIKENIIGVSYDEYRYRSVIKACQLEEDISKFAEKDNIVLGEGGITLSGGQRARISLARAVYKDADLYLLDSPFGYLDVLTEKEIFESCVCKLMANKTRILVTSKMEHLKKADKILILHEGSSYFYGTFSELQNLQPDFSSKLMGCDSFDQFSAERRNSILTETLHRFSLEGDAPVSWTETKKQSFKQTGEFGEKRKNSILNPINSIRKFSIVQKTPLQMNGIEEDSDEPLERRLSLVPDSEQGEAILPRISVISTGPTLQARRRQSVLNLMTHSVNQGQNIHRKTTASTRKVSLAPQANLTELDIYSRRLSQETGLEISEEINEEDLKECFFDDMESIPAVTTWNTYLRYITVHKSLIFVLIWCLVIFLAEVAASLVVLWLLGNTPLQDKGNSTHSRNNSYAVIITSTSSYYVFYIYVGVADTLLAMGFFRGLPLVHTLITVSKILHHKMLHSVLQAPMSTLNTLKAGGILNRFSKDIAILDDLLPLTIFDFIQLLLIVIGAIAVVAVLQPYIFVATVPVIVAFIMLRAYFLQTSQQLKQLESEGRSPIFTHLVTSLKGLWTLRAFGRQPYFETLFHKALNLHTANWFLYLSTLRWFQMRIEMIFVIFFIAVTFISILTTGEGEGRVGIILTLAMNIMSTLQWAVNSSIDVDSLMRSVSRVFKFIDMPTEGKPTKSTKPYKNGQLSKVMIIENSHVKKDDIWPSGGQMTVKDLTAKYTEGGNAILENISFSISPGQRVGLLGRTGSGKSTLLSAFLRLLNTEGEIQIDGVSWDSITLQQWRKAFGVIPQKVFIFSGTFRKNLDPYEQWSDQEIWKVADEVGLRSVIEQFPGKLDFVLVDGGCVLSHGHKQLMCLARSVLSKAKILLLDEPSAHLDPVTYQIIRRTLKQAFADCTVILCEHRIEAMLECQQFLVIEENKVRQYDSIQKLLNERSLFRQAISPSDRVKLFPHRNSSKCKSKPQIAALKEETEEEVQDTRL
Method in brief: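 Read-out: chemiluminescent HRP activity of ECL4-HRP-tagged ΔF508-CFTR at the cell surface, 15 min substrate in dark. Normalized as 100×(sample−DMSO)/(positive control−DMSO).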

[2] = target: T2, CFTR ΔF508 (Homo sapiens, UniProt P13569, DEL508-508); test: Chronic TECC assay, primary bronchial epithelial cells of CF patients homozygous for CFTR ΔF508 (corrector, co-corrector and potentiator); format: cell-based; conditions: chronic TECC, Ieq = calculations based on the maximum current
T2 construct: bronchial epithelial cells isolated from CF patients homozygous for the CFTR ΔF508 mutation; McGill University; Asterand; University of North Carolina hAEC-CF; host or cells: primary human bronchial epithelial cells from CF patients homozygous for ΔF508, differentiated at air-liquid interface
T2 sequence (P13569 with tags, fused parts or gaps DEL508-508): as above
Method in brief: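 Primary bronchial epithelial cells from ΔF508-homozygous CF patients on collagen IV-coated Transwells were chronically treated with test compound plus corrector and potentiator, which were re-added before recording. Ieq was derived from PD and Rt in NaCl-Ringer, pH 7.4, at 37° C, with apical amiloride and bilateral forskolin, recorded every 2 min over 20 min. Ieq increase was normalized to controls, and EC50 was taken from per-well concentrations.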

| SMILES | % Activation [1] | EC50 [1] | EC50 ([2]; read-out: EC50 (nM) (Ieq*)) | % Activity at 1 μM (Ieq*) ([2]; test compound at 1 μM) |
| --- | --- | --- | --- | --- |
| CC(C)c1nn(C2CCCCC2)c2nc(C(=O)NS(C)(=O)=O)cc(-c3cnc(N4CCOCC4)nc3)c12 [Compound 11, 1-cyclohexyl-N-(methanesulfonyl)-4-[2-(morpholin-4-yl)pyrimidin-5-yl]-3-(propan-2-yl)-1H-pyrazolo[3,4-b]pyridine-6-carboxamide] | 164.7% | 557 nM | – | – |
| CS(=O)(=O)NC(=O)c1cc(-c2ccc(N3CCC(C#N)CC3)nc2)c2c(C3CCC3)nn(C3CCCCC3)c2n1 [Compound 104, 4-[6-(4-cyanopiperidin-1-yl)pyridin-3-yl]-3-cyclobutyl-1-cyclohexyl-N-(methanesulfonyl)-1H-pyrazolo[3,4-b]pyridine-6-carboxamide] | 239.6% | 497 nM | < 30 nM | 720% |
| CC(C)c1nn(-c2cccc(N3CCC3)c2)c2nc(C(=O)NS(C)(=O)=O)cc(-c3ccc(N4CCOCC4)cc3)c12 [Compound 10, 1-[3-(azetidin-1-yl)phenyl]-N-(methanesulfonyl)-4-[4-(morpholin-4-yl)phenyl]-3-(propan-2-yl)-1H-pyrazolo[3,4-b]pyridine-6-carboxamide] | 418.25% | 572 nM | – | – |
| Cc1nn(-c2ccccc2)c2nc(C(=O)NS(C)(=O)=O)cc(N3CCCCC3)c12 [Compound 13, N-(methanesulfonyl)-3-methyl-1-phenyl-4-(piperidin-1-yl)-1H-pyrazolo[3,4-b]pyridine-6-carboxamide] | 153.85% | 2360 nM | – | – |
